Test results published in US10220033B2, “Substituted benzoxazepine for cancer therapy” (University of Cape Town, priority 2014, dated 2019).
Entries after “also recorded” stand apart in the source; their conditions may differ.

Experiments:
cancer cell lines = test: MTT cell viability, summary statements over panels of cancer cell lines; assay type: cell-based; details: cervical, oesophageal, ovarian and breast cancer cell lines (Table 11); read-out: IC50
Description: (§1) Cells were plated in 96-well plates and treated with varying concentrations of a test compound for 48 hours, after which MTT dye, 3-(4,5-dimethylthiazol-2-yl)-2,5-diphenyltetrazolium bromide (Sigma), was added, and crystals solubilised 4 hours later using Solubilisation Reagent (10% SLS in 0.01 M HCl). Absorbencies were measured at 595 nm the following day using a BioTek microplate spectrophotometer (Winooski, Vt., USA) and IC50 curves were generated using GraphPad Prism.

[1] = test system: non-cancer fibroblast cells; test: MTT cell viability, summary statement for non-cancer cells; assay type: cell-based
Description: as §1

[2] = test system: p65 nuclear import (Kpnβ1 cargo protein); test: Percentage of nuclear and cytoplasmic p65 (FIG. 4); assay type: cell-based
[3] = test system: PARP cleavage in CaSki cells; test: PARP cleavage analysis by Western Blot; assay type: cell-based; details: IC50 and twice the IC50 (FIG. 5), varying concentrations 12 hours (FIG. 26)
Description: CaSki cells were treated with varying concentrations of Compound A for 12 hours, following which cells and cell floaters were harvested using RIPA buffer (10 mM Tris-Cl, pH 7.4, 150 mM NaCl, 1% sodium deoxycholate, 0.1% SDS, 1% Triton X-100, 1× complete protease inhibitor cocktail (Roche, Mannheim, Germany)) and Western Blot analysis performed, using a rabbit anti-Parp1/2 (H-250) antibody (sc-7150).

[4] = test system: GFP-Kpnα2 localisation in CaSki cells; test: GFP-Kpnα2 nuclear translocation, fluorescence microscopy; assay type: cell-based; details: 10 μM
Description: For controls, equivalent volumes of DMSO were used. Cells were fixed with 4% paraformaldehyde prior to fluorescence microscopy and cell nuclei were stained with 0.5 μg/ml DAPI. Due to fluorescence emitted by Compound A in the GFP channel, the Compound A signal had to be excluded from the GFP signal by separating the emission spectra. A Zeiss LSM 510 Meta confocal microscope was used and images captured using the ZEN 2009 camera with associated AxioVision software (version 4.7). Pictures were edited using the Zeiss image browser. For quantification, 100 cells from each condition were analysed using Image J.
Compound A with cell-killing ability was tested for its ability to block nuclear import using a fluorescence-based screening assay. The assay was based on the fact that Kpnα enters the nucleus in a complex with Kpnβ1. Kpnα2 (Impα1 or Rch1) was GFP-tagged (FIG. 8) and its localisation monitored after treatment with the various compounds, via fluorescence microscopy. […] It was noted that Compound A fluoresced itself, and thus the compound fluorescence signal had to be excluded from the GFP-Kpnα2 signal by separating the emission spectra.

[5] = test system: NFY nuclear localisation in CaSki cells; test: Nuclear and cytoplasmic protein extraction, Western Blot; assay type: cell-based; details: IC50 concentration, 48 hours (FIGS. 11, 12)
Description: (§2) Nuclear and cytoplasmic protein fractionation was performed using the NE-PER Nuclear Protein Extraction Kit (ThermoScientific, Rockford, Ill., USA), according to the manufacturer's instructions. […] Western Blot analysis was performed using a goat anti-Karyopherin α2 (C-20) antibody (sc-6917, Santa Cruz Biotechnology), and a rabbit anti-NFYA (H-209) antibody (sc-10779, Santa Cruz Biotechnology). An anti-β-tubulin (H-235) antibody (sc-9104, Santa Cruz Biotechnology) was used to control for cytoplasmic protein loading and a rabbit anti-TATA-box binding protein (TBP) (N-12) and antibody (sc-204, Santa Cruz Biotechnology) to control for nuclear protein loading. Densitometry was performed using Image J.

[6] = test system: endogenous Kpnα2 nuclear localisation in CaSki cells; test: as above; assay type: cell-based; details: IC50 concentration, 48 hours (FIGS. 11, 12)
Description: as §2

[7] = test system: AP-1 transcriptional activity in CaSki cells; test: AP-1 luciferase reporter assay; assay type: cell-based; details: 10 or 15 μM, 24 hours (FIG. 15)
Description: (§3) To assay for AP-1 and p65 luciferase activities, 40 000 CaSki cells were plated in 24-well plates, and transfected with 50 ng of an API luciferase reporter (containing four copies of the AP-1 binding site) or 50 ng of a p65 luciferase reporter (containing five copies of the p65 binding site, Clontech, CA, USA) and 5 ng pRL-TK (encoding Renilla luciferase, Promega), using 0.16 μl TransFectin™ lipid reagent (Bio-Rad, Hercules, Calif., USA). The following day cells were treated with 10 or 15 μM Compound A. Luciferase activity was measured 24 hours after Compound A treatment using the Dual-LuciferaseR Reporter assay system (Promega, Madison, Wis., USA), according to the manufacturers' instructions. Luciferase readings were measured using the Veritas™ microplate luminometer (Promega) and luciferase readings were normalised to Renilla luciferase in the same extract.

[8] = test system: p65/NFκB transcriptional activity in CaSki cells; test: p65 luciferase reporter assay; assay type: cell-based; details: 10 or 15 μM, 24 hours (FIG. 15)
Description: as §3

[9] = test system: DMB and FG0 non-cancer fibroblast cells; test: Cell proliferation assay (MTT), non-cancer cells; assay type: cell-based
Description: To assay for cell proliferation after Compound A treatment, 5000 cells/well were plated in 96-well plates and treated with 5, 10 or 15 μM Compound A, after which cell proliferation was monitored every 24 hours for four days, using MTT.
This effect was sustained for the full 5 day time period, confirming that there was no population of cells that recovered from the treatment.

CaSki cells = test: Cell cycle analysis; assay type: cell-based; details: 24 hours (FIGS. 24 and 25)
Description: CaSki cells were plated in 60 mm dishes and treated with the appropriate concentration of Compound A. Cells were harvested 24 hours after treatment, and fixed in 100% ethanol, after which they were stained with Propidium Iodide and the cell cycle profiles analysed using a BD flow cytometer (BD Biosciences, NJ, USA). Data analysis was performed using ModFit 3.3 software.

[10] = Body mass of tumour-bearing mice during treatment; assay type: in vivo; details: WHCO6 tumour-bearing mice; 50 mg/kg i.p. over the course of the treatment (FIG. 29)
Description: WHCO6 cells were harvested and resuspended in PBS. For tumour inoculation, cancer cells (5×10^6 per mouse) were s.c. implanted into the hind flanks of female nude mice. Once tumours had reached a palpable size, drug treatment was initiated, where tumour-bearing mice were randomized and dosed i.p. with either vehicle (DMSO) or Compound A (50 mg/kg), every 2-3 days for 3 weeks. Tumour volumes were measured twice a week, using calipers, and tumour volume estimated using the following formula: volume=(length×width×width)/2. Mice were sacrificed 3 weeks after the commencement of drug treatment.

Solubility = assay type: physicochemical; details: in dimethylsulfoxide (DMSO)

IC50 (cancer cell lines): ~10 µM | body mass of the mice [10]: did not change | solubility (Solubility): soluble
Compound: CN(C)CCCn1c(N)c(-c2nc3ccccc3[nH]2)c2nc3ccccc3nc21 [Compound A, 3-(1H-benzimidazol-2-yl)-1-(3-dimethylaminopropyl)pyrrolo[5,4-b]quinoxalin-2-amine]
IC50 [1]: 20 to 30 µM | nuclear import of Kpnβ1 cargo protein (percentage of nuclear p65 relative to cytoplasmic p65) [2]: inhibit the nuclear import of Kpnβ1 cargo protein | PARP cleavage as an indicator of apoptosis [3]: induce cancer cell death via apoptosis; also recorded: increase in the levels of the 89 kDa cleaved PARP | number of cells containing cytoplasmic GFP-Kpnα2 ([4]; 24 hours (FIG. 9)): significant increase | GFP-Kpnα2 nuclear fluorescence signal ([4]; 24 hours (FIG. 10)): significant decrease | NFY in the nuclear fraction [5]: decrease | amount of Kpnα2 in the nucleus [6]: decrease | AP-1 luciferase activity [7]: decreased in a dose-dependent manner | p65 luciferase activity [8]: decreased in a dose-dependent manner | cell proliferation ([9]; 10 μM (FIGS. 21 E and F)): proliferated relatively normally | time within which cell death occurred ([9]; 15 μM): 24 to 48 h | percentage of cells in the G1 stage of the cell cycle (CaSki cells): increase | percentage of cells in the S and G2/M stages (CaSki cells): decrease
